Assay results: the supplement of paper PMC12463676, “Small-molecule dissolution of stress granules by redox modulation benefits ALS models” (Nature Chemical Biology, 2025)

How the values were obtained:
[1] = compound: O=[As]([O-])(O)O.[K+] [potassium arsenate]; experiment: thermal stability z-score vs DMSO; higher = more thermally stabilized by treatment; settings: HeLa; arsenate concentration 1 mM
Experimental: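 Cellular thermal proteome profiling in HeLa cells treated with 1 mM arsenate for 1 h (DMSO pretreatment), heated to ten temperatures (37-66.3 °C). Soluble protein was quantified by TMT mass spectrometry relative to DMSO controls; the thermal stability score was transformed to a z-score; mean of n = 3 experiments.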

[2] = compound: NC(=O)CCCCC1CCSS1 [lipoamide]; experiment: as above; settings: HeLa, lipoamide concentration 100 µM
Experimental: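 Cellular thermal proteome profiling in HeLa cells. Cells were treated with 100 µM lipoamide for 1 h, with or without 1 mM arsenate for a further 1 h, then heated to ten temperatures (37-66.3 °C), and soluble protein was quantified by TMT mass spectrometry relative to 0.1% DMSO controls. The thermal stability score (sum of log2 fold changes minus the abundance score) was transformed to a z-score; mean of n = 3 experiments.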

[3] = arsenate co-treatment: 1 mM arsenate 1 h
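Note: each temperature applied for 3 min, abundance score taken as mean log2 fold change at the two lowest temperatures, z-score obtained by mean subtraction and division by SD.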

UniProt Q12768, sequence (Q12768 whole entry): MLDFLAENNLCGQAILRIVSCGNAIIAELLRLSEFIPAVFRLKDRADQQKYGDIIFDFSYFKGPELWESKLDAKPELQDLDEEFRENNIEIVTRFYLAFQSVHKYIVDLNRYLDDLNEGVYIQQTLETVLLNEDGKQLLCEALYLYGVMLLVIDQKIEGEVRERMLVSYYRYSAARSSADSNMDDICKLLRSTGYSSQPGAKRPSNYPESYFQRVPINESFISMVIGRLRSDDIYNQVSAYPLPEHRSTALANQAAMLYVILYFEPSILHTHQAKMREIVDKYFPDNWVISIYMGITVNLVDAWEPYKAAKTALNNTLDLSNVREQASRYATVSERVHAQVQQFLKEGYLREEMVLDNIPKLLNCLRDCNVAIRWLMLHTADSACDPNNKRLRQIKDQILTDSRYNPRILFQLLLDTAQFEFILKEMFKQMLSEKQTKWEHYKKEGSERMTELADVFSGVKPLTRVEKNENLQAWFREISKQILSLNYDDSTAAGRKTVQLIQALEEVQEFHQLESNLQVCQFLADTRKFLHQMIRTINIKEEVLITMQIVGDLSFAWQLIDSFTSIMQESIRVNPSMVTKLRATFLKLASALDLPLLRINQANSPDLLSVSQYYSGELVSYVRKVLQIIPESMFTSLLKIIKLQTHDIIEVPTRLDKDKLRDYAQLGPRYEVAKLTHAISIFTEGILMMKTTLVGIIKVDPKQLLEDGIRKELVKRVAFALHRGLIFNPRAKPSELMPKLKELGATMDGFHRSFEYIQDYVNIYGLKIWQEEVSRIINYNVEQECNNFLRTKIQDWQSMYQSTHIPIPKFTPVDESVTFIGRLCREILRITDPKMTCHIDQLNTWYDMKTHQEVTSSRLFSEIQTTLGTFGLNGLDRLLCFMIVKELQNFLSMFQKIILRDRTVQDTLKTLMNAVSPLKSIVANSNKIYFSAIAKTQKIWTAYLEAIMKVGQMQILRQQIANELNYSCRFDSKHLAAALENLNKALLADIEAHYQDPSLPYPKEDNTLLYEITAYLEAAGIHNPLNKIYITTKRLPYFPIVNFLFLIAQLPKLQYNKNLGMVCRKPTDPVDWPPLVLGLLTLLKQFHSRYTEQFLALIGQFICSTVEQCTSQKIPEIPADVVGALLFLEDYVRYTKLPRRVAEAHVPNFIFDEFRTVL
UniProt Q2M389, sequence (Q2M389 whole entry): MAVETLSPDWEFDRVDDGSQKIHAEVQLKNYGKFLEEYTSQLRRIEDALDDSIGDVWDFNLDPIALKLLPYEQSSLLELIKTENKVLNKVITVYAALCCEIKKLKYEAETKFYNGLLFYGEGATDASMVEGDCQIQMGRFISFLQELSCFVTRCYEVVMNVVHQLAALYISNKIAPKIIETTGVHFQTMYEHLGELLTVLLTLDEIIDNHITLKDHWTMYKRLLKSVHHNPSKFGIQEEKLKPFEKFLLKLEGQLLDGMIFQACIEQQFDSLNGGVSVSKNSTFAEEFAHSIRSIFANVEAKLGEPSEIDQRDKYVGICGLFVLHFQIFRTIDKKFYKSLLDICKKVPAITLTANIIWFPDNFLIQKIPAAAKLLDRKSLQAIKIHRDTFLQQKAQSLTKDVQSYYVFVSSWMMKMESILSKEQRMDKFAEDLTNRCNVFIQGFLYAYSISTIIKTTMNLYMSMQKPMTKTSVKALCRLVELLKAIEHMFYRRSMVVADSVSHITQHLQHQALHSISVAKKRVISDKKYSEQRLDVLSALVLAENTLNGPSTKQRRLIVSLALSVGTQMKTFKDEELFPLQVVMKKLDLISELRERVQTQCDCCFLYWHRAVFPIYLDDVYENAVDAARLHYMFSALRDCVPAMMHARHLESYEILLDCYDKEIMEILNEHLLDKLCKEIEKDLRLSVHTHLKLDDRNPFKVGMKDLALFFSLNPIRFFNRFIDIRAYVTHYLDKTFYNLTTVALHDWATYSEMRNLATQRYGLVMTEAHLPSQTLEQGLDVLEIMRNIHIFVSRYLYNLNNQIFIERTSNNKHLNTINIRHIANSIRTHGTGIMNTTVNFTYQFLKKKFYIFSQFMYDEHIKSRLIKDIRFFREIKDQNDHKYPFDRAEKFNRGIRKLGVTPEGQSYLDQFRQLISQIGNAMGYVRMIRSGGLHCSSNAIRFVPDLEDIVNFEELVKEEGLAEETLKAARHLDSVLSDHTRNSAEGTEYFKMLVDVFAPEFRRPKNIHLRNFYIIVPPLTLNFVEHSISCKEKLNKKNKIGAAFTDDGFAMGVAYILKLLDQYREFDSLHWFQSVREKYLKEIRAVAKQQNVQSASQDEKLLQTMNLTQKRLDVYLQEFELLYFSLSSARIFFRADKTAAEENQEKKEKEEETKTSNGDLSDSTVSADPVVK
UniProt Q9BW19, sequence (Q9BW19 whole entry): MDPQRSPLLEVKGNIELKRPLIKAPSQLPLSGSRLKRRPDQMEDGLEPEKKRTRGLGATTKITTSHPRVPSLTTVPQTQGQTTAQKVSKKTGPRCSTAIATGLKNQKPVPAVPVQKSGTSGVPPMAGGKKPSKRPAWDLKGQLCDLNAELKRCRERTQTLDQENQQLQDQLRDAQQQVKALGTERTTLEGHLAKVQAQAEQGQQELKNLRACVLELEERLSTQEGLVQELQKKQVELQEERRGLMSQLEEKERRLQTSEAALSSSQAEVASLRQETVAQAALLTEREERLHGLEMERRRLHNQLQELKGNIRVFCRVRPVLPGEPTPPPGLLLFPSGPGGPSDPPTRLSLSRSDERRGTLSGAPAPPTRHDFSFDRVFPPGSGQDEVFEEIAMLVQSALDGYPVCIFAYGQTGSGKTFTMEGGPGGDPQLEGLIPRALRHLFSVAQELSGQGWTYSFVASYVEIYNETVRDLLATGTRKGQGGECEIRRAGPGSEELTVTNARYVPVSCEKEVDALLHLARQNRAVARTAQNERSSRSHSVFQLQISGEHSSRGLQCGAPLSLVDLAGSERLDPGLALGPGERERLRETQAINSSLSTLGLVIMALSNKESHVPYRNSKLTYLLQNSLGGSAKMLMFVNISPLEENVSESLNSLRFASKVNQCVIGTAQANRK
UniProt Q9H1H9, sequence (Q9H1H9 whole entry): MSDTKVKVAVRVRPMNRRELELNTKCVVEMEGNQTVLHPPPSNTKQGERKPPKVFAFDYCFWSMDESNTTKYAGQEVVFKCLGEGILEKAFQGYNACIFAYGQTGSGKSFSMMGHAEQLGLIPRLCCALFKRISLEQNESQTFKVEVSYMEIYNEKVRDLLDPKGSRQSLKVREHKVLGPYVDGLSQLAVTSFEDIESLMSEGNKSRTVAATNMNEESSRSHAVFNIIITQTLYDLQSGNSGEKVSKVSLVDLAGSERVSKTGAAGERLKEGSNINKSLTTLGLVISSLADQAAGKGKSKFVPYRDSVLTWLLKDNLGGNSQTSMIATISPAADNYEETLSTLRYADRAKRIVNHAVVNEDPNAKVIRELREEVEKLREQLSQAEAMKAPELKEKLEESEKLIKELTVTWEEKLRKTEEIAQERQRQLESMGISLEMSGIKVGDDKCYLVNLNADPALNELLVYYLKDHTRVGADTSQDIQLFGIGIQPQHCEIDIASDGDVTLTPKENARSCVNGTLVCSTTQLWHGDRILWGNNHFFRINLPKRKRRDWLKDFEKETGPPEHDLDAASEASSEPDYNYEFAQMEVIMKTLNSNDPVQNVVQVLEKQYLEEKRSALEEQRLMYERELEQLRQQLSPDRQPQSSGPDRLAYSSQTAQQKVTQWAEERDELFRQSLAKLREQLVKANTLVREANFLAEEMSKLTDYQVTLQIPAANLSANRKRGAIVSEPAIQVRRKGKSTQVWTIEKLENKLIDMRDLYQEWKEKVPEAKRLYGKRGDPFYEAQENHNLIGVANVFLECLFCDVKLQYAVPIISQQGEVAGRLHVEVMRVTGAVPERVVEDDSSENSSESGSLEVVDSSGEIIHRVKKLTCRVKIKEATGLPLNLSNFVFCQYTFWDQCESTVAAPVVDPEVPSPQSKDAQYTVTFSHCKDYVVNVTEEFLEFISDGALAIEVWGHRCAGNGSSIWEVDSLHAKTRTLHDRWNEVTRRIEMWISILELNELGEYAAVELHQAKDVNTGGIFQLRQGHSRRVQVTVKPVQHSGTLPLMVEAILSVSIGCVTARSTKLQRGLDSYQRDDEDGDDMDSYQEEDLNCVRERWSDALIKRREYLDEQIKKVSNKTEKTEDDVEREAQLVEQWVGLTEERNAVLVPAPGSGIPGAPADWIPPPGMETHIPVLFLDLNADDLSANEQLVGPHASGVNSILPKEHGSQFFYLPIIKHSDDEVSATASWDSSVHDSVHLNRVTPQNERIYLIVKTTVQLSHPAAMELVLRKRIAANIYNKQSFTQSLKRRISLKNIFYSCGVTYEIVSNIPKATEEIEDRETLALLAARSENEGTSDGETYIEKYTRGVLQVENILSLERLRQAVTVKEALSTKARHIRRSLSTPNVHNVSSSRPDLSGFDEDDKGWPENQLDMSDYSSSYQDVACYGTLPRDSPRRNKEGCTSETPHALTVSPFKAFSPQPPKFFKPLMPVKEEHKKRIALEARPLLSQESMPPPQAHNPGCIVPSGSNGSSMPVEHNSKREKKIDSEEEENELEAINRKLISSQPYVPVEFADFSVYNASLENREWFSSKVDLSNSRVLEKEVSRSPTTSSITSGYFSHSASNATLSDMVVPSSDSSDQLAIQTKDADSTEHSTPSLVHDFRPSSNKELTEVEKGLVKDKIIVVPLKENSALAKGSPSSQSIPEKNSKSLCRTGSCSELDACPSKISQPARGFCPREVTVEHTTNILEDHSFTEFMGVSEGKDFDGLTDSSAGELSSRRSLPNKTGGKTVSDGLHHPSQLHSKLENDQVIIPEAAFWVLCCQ
UniProt Q9BXK1, sequence (Q9BXK1 whole entry): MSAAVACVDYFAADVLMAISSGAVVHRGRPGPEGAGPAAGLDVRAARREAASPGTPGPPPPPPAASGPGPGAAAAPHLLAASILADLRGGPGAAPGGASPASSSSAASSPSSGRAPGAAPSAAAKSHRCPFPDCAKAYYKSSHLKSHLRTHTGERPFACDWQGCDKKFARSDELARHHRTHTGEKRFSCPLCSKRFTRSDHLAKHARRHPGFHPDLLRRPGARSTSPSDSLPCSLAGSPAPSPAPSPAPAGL

Target	thermal stability z-score [1]	thermal stability z-score [2, 3]	thermal stability z-score ([2]; arsenate co-treatment: none)
KDSR (UniProt Q06136)	0.275	0.0293	0.264
KEAP1 (UniProt Q14145)	4.65	2.32	2.11
KHDRBS1 (UniProt Q07666)	-1.16	-0.091	0.104
KHSRP (UniProt Q92945)	0.486	0.21	0.161
KIAA0101 (UniProt Q15004)	0.49	0.253	0.245
KIAA0196 (UniProt Q12768)	0.0921	-0.101	0.0446
KIAA0319L (UniProt Q8IZA0)	-0.349	0.936	0.43
KIAA0368|ECM29	0.537	-0.212	0.501
KIAA0391 (UniProt O15091)	-0.0848	-0.0274	0.14
KIAA0586 (UniProt Q9BVV6)	-0.133	0.234	0.264
KIAA0907 (UniProt Q7Z7F0)	-0.94	-0.462	-1.09
KIAA0930 (UniProt Q6ICG6)	0.706	0.193	0.227
KIAA1033 (UniProt Q2M389)	-0.0284	-0.344	-0.193
KIAA1143 (UniProt Q96AT1)	-0.385	-0.286	0.26
KIAA1217 (UniProt Q5T5P2)	0.188	-0.00757	-0.0174
KIAA1429 (UniProt Q69YN4)	-0.0736	-0.266	-0.035
KIAA1468 (UniProt Q9P260)	-0.0466	0.284	0.0862
KIAA1522 (UniProt Q9P206)	0.286	-0.388	-0.0277
KIAA1524 (UniProt Q8TCG1)	0.662	-0.00458	-0.0673
KIAA2013 (UniProt Q8IYS2)	-1.04	1.03	1.5
KIDINS220 (UniProt Q9ULH0)	0.0983	-0.105	0.516
KIF1B (UniProt O60333)	-0.321	-0.488	-0.322
KIF1BP (UniProt Q96EK5)	0.587	0.371	-0.0427
KIF1C (UniProt O43896)	-0.086	-0.00389	0.0165
KIF2A (UniProt O00139)	-0.0587	-0.584	-0.0403
KIF2C (UniProt Q99661)	0.56	-0.47	-0.0787
KIF3A (UniProt Q9Y496)	0.523	-0.146	0.418
KIF3B (UniProt O15066)	-0.47	0.285	-0.318

Target	thermal stability z-score [1]	thermal stability z-score [2, 3]	thermal stability z-score ([2]; arsenate co-treatment: none)
KIF4A (UniProt O95239)	-0.219	-0.0934	0.023
KIF5B (UniProt P33176)	1.17	0.397	0.256
KIF11 (UniProt P52732)	1.19	-0.347	0.00677
KIF13A (UniProt Q9H1H9)	0.0799	0.286	-0.0098
KIF14 (UniProt Q15058)	-0.00998	0.0801	0.0434
KIF15 (UniProt Q9NS87)	0.921	-0.328	-0.386
KIF20A (UniProt O95235)	-0.154	0.142	0.152
KIF21A (UniProt Q7Z4S6)	0.269	-0.586	-0.117
KIF22 (UniProt Q14807)	-0.386	-0.451	0.147
KIF23 (UniProt Q02241)	-0.0543	0.207	0.324
KIFC1 (UniProt Q9BW19)	-0.106	0.126	0.0537
KIFC3 (UniProt Q9BVG8)	-0.23	-0.119	-0.358
KIN (UniProt O60870)	-0.174	-0.0116	0.0339
KIRREL (UniProt Q96J84)	0.892	0.0439	-0.449
KLC1 (UniProt Q07866)	-0.0989	-0.0381	-0.129
KLC2 (UniProt Q9H0B6)	0.557	-0.0443	0.117
KLC4 (UniProt Q9NSK0)	0.297	-1.48	0.259
KLF4 (UniProt O43474)	-1.07	-0.157	-0.548
KLF16 (UniProt Q9BXK1)	0.778	-0.384	0.0662
KLHDC3 (UniProt Q9BQ90)	1.05	0.45	-0.351
KLHDC4 (UniProt Q8TBB5)	-0.251	-0.895	-0.0677
KLHL11 (UniProt Q9NVR0)	-0.421	0.651	-0.0811
KLHL13 (UniProt Q9P2N7)	0.825	-0.764	-0.242
KLHL26 (UniProt Q53HC5)	-0.108	-0.138	-0.165
KLHL42 (UniProt Q9P2K6)	-0.142	-0.26	-0.0102
KMT2D (UniProt O14686)	-0.661	-0.298	-0.455
KNOP1 (UniProt Q1ED39)	0.831	0.735	-0.755
